Experimental data: patent US8410302B2, “Methoxyimino compounds and fungicide composition comprising same” (Kyung Nong Corporation, priority 2007, dated 2013)
Read-outs that look alike come from different tables or passages of the source.

How the values were obtained:
[1] = tested on: Erysiphae graminis; experiment: Fungicidal activity against barley powdery mildew (BPM) disease, control value; assay type: in vivo; conditions: for pest or weed control at 2 ppm / pest or weed control at 10 ppm / pest or weed control at 50 ppm / pest or weed control at 100 ppm: 168 h, read-out: BPM control value (C.V.)
[2] = tested on: Botrytis cinerae; experiment: Fungicidal activity against cucumber gray mold rot (CGM) disease, control value; assay type: in vivo; conditions: 100 ppm; for pest or weed control at 100 ppm: Botrytis, read-out: CGM control value (C.V.)
[3] = tested on: Pyricularia oryzae Carvara KA301; experiment: whole plant or invertebrate; assay type: in vivo; conditions: for pest or weed control at 2 ppm / pest or weed control at 10 ppm / pest or weed control at 50 ppm / pest or weed control at 100 ppm: Pyricularia oryzae, read-out: RCB control value (C.V.); for RCB control value (C.V.): rice blast
[4] = tested on: Puccinia recondita; experiment: Fungicidal activity against wheat leaf rust (WLR) disease, control value; assay type: in vivo; conditions: for pest or weed control at 2 ppm / pest or weed control at 10 ppm / pest or weed control at 50 ppm / pest or weed control at 100 ppm: read-out: WLR control value (C.V.)
[5] = tested on: Phytophthora infestans; experiment: whole plant or invertebrate; assay type: in vivo; conditions: for pest or weed control at 2 ppm / pest or weed control at 10 ppm / pest or weed control at 50 ppm / pest or weed control at 100 ppm: Phytophthora infestans, in Solanum lycopersicum, read-out: TLB control value (C.V.); for TLB control value (C.V.): tomato late blight
[6] = tested on: Rhizoctonia solani AG-1; experiment: Fungicidal activity against rice sheath blight (RSB) disease, control value; conditions: for pest or weed control at 2 ppm / pest or weed control at 10 ppm / pest or weed control at 50 ppm / pest or weed control at 100 ppm: Rhizoctonia solani, AG1, in Oryza sativa, read-out: RSB control value (C.V.)
[7] = Hordeum vulgare, barley powdery mildew
[8] = Hordeum vulgare, 100 ppm, barley powdery mildew

Row | Compound | pest or weed control at 2 ppm [1, 7] [%] | pest or weed control at 10 ppm [1, 7] [%] | pest or weed control at 50 ppm [1, 7] [%] | pest or weed control at 100 ppm [1, 8] [%] | pest or weed control at 100 ppm ([2]; cucumber gray mold rot) [%] | pest or weed control at 2 ppm [3] [%] | pest or weed control at 10 ppm [3] [%] | pest or weed control at 50 ppm [3] [%] | pest or weed control at 100 ppm [3] [%] | pest or weed control at 2 ppm ([4]; wheat leaf rust) [%] | pest or weed control at 10 ppm ([4]; wheat leaf rust) [%] | pest or weed control at 50 ppm ([4]; wheat leaf rust) [%] | pest or weed control at 2 ppm [5] [%] | pest or weed control at 10 ppm [5] [%] | pest or weed control at 50 ppm [5] [%] | pest or weed control at 100 ppm [5] [%] | pest or weed control at 2 ppm [6] [%] | pest or weed control at 10 ppm [6] [%] | pest or weed control at 50 ppm [6] [%] | pest or weed control at 100 ppm [6] [%] | also measured
1 | CO/N=C(/C(=O)OC)c1ccccc1COc1c(OC)ccc(C=C(Cl)Cl)c1Br [Example 51, methyl-(E)-2-(2-((2-bromo-3-(2,2-dichlorovinyl)-6-methoxyphenoxy)methyl)phenyl)-2-methoxyiminoacetate] | 100 | 100 | 100 | 100 | 75 | 90 | 100 | 100 | 100 | 100 | 100 | 100 | 90 | 97 | 100 | 100 | 90 | 98 | 100 | 100 | pest or weed control at 100 ppm ([4]; 100 ppm, wheat leaf rust): 100%
2 | CNC(=O)/C(=N/OC)c1ccccc1COc1ccc(C=C(Cl)Cl)cc1C [Example 42, (E)-2-(2-((4-(2,2-dichlorovinyl)-2-methylphenoxy)methyl)phenyl)-2-methoxyimino-N-methylacetamide] | 100 | 100 | 100 | 100 | 0 | 100 | 100 | 100 | 100 | 100 | 100 | 100 |  |  | 70 | 95 | 100 | 100 | 100 | 100 | pest or weed control at 100 ppm ([4]; 100 ppm, wheat leaf rust): 100%
3 | CO/N=C(/C(=O)OC)c1ccccc1COc1ccc(C=C(Cl)Cl)cc1Cl [Example 39, methyl-(E)-2-(2-((2-chloro-4-(2,2-dichlorovinyl)phenoxy)methyl)phenyl)-2-methoxyiminoacetate] | 100 | 100 | 100 | 100 | 75 | 100 | 100 | 100 | 100 | 100 | 100 | 100 | 100 | 100 | 100 | 100 | 100 | 100 | 100 | 100 | pest or weed control at 100 ppm ([4]; 100 ppm, wheat leaf rust): 100%
4 | CO/N=C(/C(=O)OC)c1ccccc1COc1ccc(C=C(Br)Br)cc1 [Example 7, methyl-(E)-2-(2-((4-(2,2-dibromovinyl)phenoxy)methyl)phenyl)-2-methoxyiminoacetate] | 100 | 100 | 100 | 100 | 35 | 100 | 100 | 100 | 100 | 100 | 100 | 100 | 100 | 100 | 100 | 100 | 98 | 100 | 100 | 100 | pest or weed control at 100 ppm ([4]; 100 ppm, wheat leaf rust): 100%
5 | CNC(=O)/C(=N/OC)c1ccccc1COc1cc(C=C(Br)Br)ccc1OC [Example 72, (E)-2-(2-((5-(2,2-dibromovinyl)-2-methoxyphenoxy)methyl)phenyl)-2-methoxyimino-N-methylacetamide] |  |  |  |  |  | 80 | 99 | 100 | 100 |  |  |  | 70 | 90 | 100 | 100 | 75 | 98 | 100 | 100 | pest or weed control at 2 ppm [1]: 98%; pest or weed control at 10 ppm [1]: 100%; pest or weed control at 50 ppm [1]: 100%; pest or weed control at 100 ppm ([1]; 100 ppm): 100%; pest or weed control at 100 ppm [2]: 79%; pest or weed control at 2 ppm ([4]; Puccinia recondita): 97%; pest or weed control at 10 ppm ([4]; Puccinia recondita): 100%; pest or weed control at 50 ppm ([4]; Puccinia recondita): 100%; pest or weed control at 100 ppm ([4]; Puccinia recondita, 100 ppm): 100%
6 | CO/N=C(/C(=O)OC)c1ccccc1COc1ccc(C)cc1C=C(Br)Br [Example 69, methyl-(E)-2-(2-((2-(2,2-dibromovinyl)-4-methylphenoxy)methyl)phenyl)-2-methoxyiminoacetate] |  |  |  |  |  | 100 | 100 | 100 | 100 |  |  |  | 100 | 100 | 100 | 100 | 100 | 100 | 100 | 100 | pest or weed control at 2 ppm [1]: 100%; pest or weed control at 10 ppm [1]: 100%; pest or weed control at 50 ppm [1]: 100%; pest or weed control at 100 ppm ([1]; 100 ppm): 100%; pest or weed control at 100 ppm [2]: 60%; pest or weed control at 2 ppm ([4]; Puccinia recondita): 100%; pest or weed control at 10 ppm ([4]; Puccinia recondita): 100%; pest or weed control at 50 ppm ([4]; Puccinia recondita): 100%; pest or weed control at 100 ppm ([4]; Puccinia recondita, 100 ppm): 100%
7 | CNC(=O)/C(=N/OC)c1ccccc1CON=C(C)c1ccc(C=C(F)Cl)cc1 [Example 34, (E)-2-[[[[[2-[4-(2-chloro-2-fluorovinyl)phenyl](1-methyl)methylidene]amino]oxy]methyl]phenyl]-2-methoxyimino-N-methylacetamide] |  |  |  |  |  |  |  |  |  |  |  |  |  |  |  |  |  |  |  |  | BPM control value (C.V.) ([1]; 100 ppm, barley powdery mildew): 60%; CGM control value (C.V.) ([2]; cucumber gray mold rot): 40%; RCB control value (C.V.) ([3]; 50 ppm): 90%; RCB control value (C.V.) ([3]; 100 ppm): 95%; WLR control value (C.V.) ([4]; 100 ppm, wheat leaf rust): 72%; TLB control value (C.V.) ([5]; 50 ppm): 35%; TLB control value (C.V.) ([5]; 100 ppm): 98%; RSB control value (C.V.) ([6]; 100 ppm, rice sheath blight): 15%
8 | CCOc1cc(C=C(Cl)Cl)ccc1OCc1ccccc1/C(=N\OC)C(=O)NC [Example 60, (E)-2-(2-((4-(2,2-dichlorovinyl)-2-ethoxyphenoxy)methyl)phenyl)-2-methoxyimino-N-methylacetamide] |  |  |  |  |  | 80 | 96 | 100 | 100 |  |  |  | 70 | 92 | 95 | 100 | 98 | 100 | 100 | 100 | pest or weed control at 2 ppm [1]: 95%; pest or weed control at 10 ppm [1]: 98%; pest or weed control at 50 ppm [1]: 100%; pest or weed control at 100 ppm ([1]; 100 ppm): 100%; pest or weed control at 100 ppm [2]: 45%; pest or weed control at 2 ppm ([4]; Puccinia recondita): 95%; pest or weed control at 10 ppm ([4]; Puccinia recondita): 100%; pest or weed control at 50 ppm ([4]; Puccinia recondita): 100%; pest or weed control at 100 ppm ([4]; Puccinia recondita, 100 ppm): 100%
9 | CO/N=C(/C(=O)OC)c1ccccc1COc1c(OC)ccc(C=C(Br)Br)c1Br [Example 75, methyl-(E)-2-(2-((2-bromo-3-(2,2-dibromovinyl)-6-methoxyphenoxy)methyl)phenyl)-2-methoxyiminoacetate] |  |  |  |  |  | 30 | 90 | 100 | 100 |  |  |  | 70 | 90 | 98 | 100 | 65 | 98 | 100 | 100 | pest or weed control at 2 ppm [1]: 92%; pest or weed control at 10 ppm [1]: 98%; pest or weed control at 50 ppm [1]: 100%; pest or weed control at 100 ppm ([1]; 100 ppm): 100%; pest or weed control at 100 ppm [2]: 40%; pest or weed control at 2 ppm ([4]; Puccinia recondita): 95%; pest or weed control at 10 ppm ([4]; Puccinia recondita): 100%; pest or weed control at 50 ppm ([4]; Puccinia recondita): 100%; pest or weed control at 100 ppm ([4]; Puccinia recondita, 100 ppm): 100%
